Drawing on patent US12077503B2, “Substituted cyclic amides and their use as herbicides” (FMC CORPORATION, priority 2015, dated 2024), this text covers pest or weed control and plant injury for four compounds.

What all share (format): in vivo
Experiment [1] concerns pigweed (Amaranthus retroflexus). As to the kind of experiment: Test A preemergence. Conditions: Amaranthus retroflexus, pre-emergence, 240 h; for pest or weed control at 125 g/ha: 125 g ai/ha, preemergence, 0 to 100 scale where 0 is no effect and 100 is complete control, read-out: Pigweed plant response rating; for pest or weed control at 500 g/ha: 500 g ai/ha, Preemergence, visual injury vs untreated controls after approximately 10 d, read-out: Pigweed plant response rating (0 to 100 scale where 0 is no effect and 100 is complete control).

The test system of experiment [2] is barnyardgrass (Echinochloa crus-galli). Put plainly: Test A preemergence. Conditions: Echinochloa crus-galli, pre-emergence, 240 h; for pest or weed control at 125 g/ha: 125 g ai/ha, preemergence, 0 to 100 scale where 0 is no effect and 100 is complete control, read-out: Barnyardgrass plant response rating; for pest or weed control at 500 g/ha: 500 g ai/ha, Preemergence, visual injury vs untreated controls after approximately 10 d, read-out: Barnyardgrass plant response rating (0 to 100 scale where 0 is no effect and 100 is complete control). In a few lines: (§1)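 Compounds were formulated in a non-phytotoxic solvent mixture with surfactant and applied as a preemergence directed soil spray after seeding, or sprayed postemergence over plants 2 to 10 cm tall at the one- to two-leaf stage. Evaluation after about 10 d compared treated with untreated controls, using a scale from 0 (no effect) to 100 (complete control).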

Experiment [3] concerns giant foxtail (Setaria faberii). As to the kind of experiment: Test A preemergence. Conditions: Setaria faberi, pre-emergence, 240 h; for pest or weed control at 125 g/ha: 125 g ai/ha, preemergence, 0 to 100 scale where 0 is no effect and 100 is complete control, read-out: Foxtail, Giant plant response rating; for pest or weed control at 500 g/ha: 500 g ai/ha, Preemergence, visual injury vs untreated controls after approximately 10 d, read-out: Foxtail, Giant plant response rating (0 to 100 scale where 0 is no effect and 100 is complete control). The method, boiled down: as §1

For experiment [4], the system named is ryegrass, Italian (Italian ryegrass, Lolium multiflorum). As to the kind of experiment: Test A preemergence. Conditions: Lolium multiflorum, pre-emergence, 240 h; for pest or weed control at 125 g/ha: 125 g ai/ha, preemergence, 0 to 100 scale where 0 is no effect and 100 is complete control, read-out: Ryegrass, Italian plant response rating; for pest or weed control at 500 g/ha: 500 g ai/ha, Preemergence, visual injury vs untreated controls after approximately 10 d, read-out: Ryegrass, Italian plant response rating (0 to 100 scale where 0 is no effect and 100 is complete control). In a few lines:
as §1

Experiment [5] relates to Kochia (Kochia scoparia). As to the kind of experiment: Test A preemergence. Conditions: Bassia scoparia, pre-emergence, 240 h; for pest or weed control at 125 g/ha: 125 g ai/ha, preemergence, 0 to 100 scale where 0 is no effect and 100 is complete control, read-out: Kochia plant response rating; for pest or weed control at 500 g/ha: 500 g ai/ha, Preemergence, visual injury vs untreated controls after approximately 10 d, read-out: Kochia plant response rating (0 to 100 scale where 0 is no effect and 100 is complete control). In a few lines: as §1

Experiment [6] deals with ragweed (common ragweed, Ambrosia elatior). As to the kind of experiment: Test A preemergence. Conditions: Ambrosia artemisiifolia, pre-emergence, 240 h; for pest or weed control at 125 g/ha: 125 g ai/ha, preemergence, 0 to 100 scale where 0 is no effect and 100 is complete control, read-out: Ragweed plant response rating; for pest or weed control at 500 g/ha: 500 g ai/ha, Preemergence, visual injury vs untreated controls after approximately 10 d, read-out: Ragweed plant response rating (0 to 100 scale where 0 is no effect and 100 is complete control). The method, boiled down:
as §1

Experiment [7] concerns pigweed (Amaranthus retroflexus). As to the kind of experiment: Test A postemergence. Conditions: Amaranthus retroflexus, post-emergence, 240 h, 125 g ai/ha, postemergence, visual injury rating after approximately 10 d; read-out: Pigweed plant response rating (0 to 100 scale, 0 no effect, 100 complete control). In a few lines:
as §1

For experiment [8], the system named is Galium (catchweed bedstraw, Galium aparine). As to the kind of experiment: Test A postemergence. Conditions: Galium, post-emergence, 240 h, 125 g ai/ha, postemergence, visual injury rating after approximately 10 d; read-out: Galium plant response rating (0 to 100 scale, 0 no effect, 100 complete control). In a few lines: as §1
The test system of experiment [9] is barnyardgrass (Echinochloa crus-galli). As to the kind of experiment: Test A postemergence. Conditions: Echinochloa crus-galli, post-emergence, 240 h, 125 g ai/ha, postemergence, visual injury rating after approximately 10 d; read-out: Barnyardgrass plant response rating (0 to 100 scale, 0 no effect, 100 complete control). The method, boiled down:
as §1

The test system of experiment [10] is giant foxtail (Setaria faberii). Put plainly: Test A postemergence. Conditions: Setaria faberi, post-emergence, 240 h, 125 g ai/ha, postemergence, visual injury rating after approximately 10 d; read-out: Foxtail, Giant plant response rating (0 to 100 scale, 0 no effect, 100 complete control). The method, boiled down:
as §1

The subject of experiment [11] is ryegrass, Italian (Italian ryegrass, Lolium multiflorum). Put plainly: Test A postemergence. Conditions: Lolium multiflorum, post-emergence, 240 h, 125 g ai/ha, postemergence, visual injury rating after approximately 10 d; read-out: Ryegrass, Italian plant response rating (0 to 100 scale, 0 no effect, 100 complete control). The method, boiled down: as §1
The subject of experiment [12] is Kochia (Kochia scoparia). Put plainly: Test A postemergence. Conditions: Bassia scoparia, post-emergence, 240 h, 125 g ai/ha, postemergence, visual injury rating after approximately 10 d; read-out: Kochia plant response rating (0 to 100 scale, 0 no effect, 100 complete control). In a few lines:
as §1

The subject of experiment [13] is wheat (Triticum aestivum). Put plainly: Test A postemergence. Conditions: Triticum aestivum, post-emergence, 240 h, 125 g ai/ha, postemergence, visual injury rating after approximately 10 d; read-out: Wheat plant response rating (0 to 100 scale, 0 no effect, 100 complete control). In a few lines:
as §1

Experiment [14] concerns blackgrass (Alopecurus myosuroides). Put plainly: Test A postemergence. Conditions: Alopecurus myosuroides, post-emergence, 240 h, 125 g ai/ha, postemergence, visual injury rating after approximately 10 d; read-out: Blackgrass plant response rating (0 to 100 scale, 0 no effect, 100 complete control). The method, boiled down:
as §1

Another experiment has as its system corn (Zea mays). As to the kind of experiment: Test A postemergence. Conditions: Zea mays, post-emergence, 240 h, 125 g ai/ha, postemergence, visual injury rating after approximately 10 d; read-out: Corn plant response rating (0 to 100 scale, 0 no effect, 100 complete control). In a few lines:
as §1

For experiment [15], the system named is ragweed (common ragweed, Ambrosia elatior). Put plainly: Test A postemergence. Conditions: Ambrosia artemisiifolia, post-emergence, 240 h, 125 g ai/ha, postemergence, visual injury rating after approximately 10 d; read-out: Ragweed plant response rating (0 to 100 scale, 0 no effect, 100 complete control). The method, boiled down:
as §1

For `CC(C)c1cccc([C@H]2CN(C)C(=O)[C@@H]2C(=O)Nc2ccccc2S(C)(=O)=O)c1` [Compound 820], the pest or weed control at 125 g/ha in experiment [1] is 40%; in experiment [2], 90%; in experiment [3], 90%; in experiment [4], 60%; in the experiment on Kochia (Kochia scoparia) [5], 70%; in [6] it was 20%. Also, the pest or weed control at 125 g/ha in experiment [7] amounted to 20%; in experiment [8] it was 30%; in experiment [9], 90%; in experiment [10], 90%; in [11], 30%; with Kochia (Kochia scoparia) [12] it was 20%. Further, the pest or weed control at 125 g/ha in [14] is 40%; in [15], 20%. Further, the pest or weed control at 500 g/ha in experiment [1] was 70%; in [2] it was 100%; in experiment [3] it was 100%; in experiment [4], 80%; in the experiment on Kochia (Kochia scoparia) [5] it was 80%; in experiment [6], 60%. Further, the results for the plant injury at 125 g/ha (in [13]; with corn (Zea mays)) were 40% and 30%, respectively.

With `CC(C)c1cccc([C@H]2CN(C)C(=O)[C@@H]2C(=O)Nc2ccc(F)cc2F)c1` [Compound 821], the pest or weed control at 125 g/ha is 50% in experiment [1]; 90% in experiment [2]; 90% in experiment [3]; 80% in experiment [4]; 70% with Kochia (Kochia scoparia) [5]; 0% in experiment [6]. In addition, the pest or weed control at 125 g/ha is 0% in [7]; 50% in [8]; 90% in experiment [9]; 80% in experiment [10]; 20% in experiment [11]; 30% in the experiment on Kochia (Kochia scoparia) [12]. Further, the pest or weed control at 125 g/ha is 70% in experiment [14] and 0% in experiment [15]. Also, the pest or weed control at 500 g/ha in experiment [1] amounted to 50%; in experiment [2], 90%; in experiment [3], 100%; in [4], 90%; with Kochia (Kochia scoparia) [5], 90%; in [6], 0%. The plant injury at 125 g/ha in experiment [13] was determined as 0%; with corn (Zea mays), 40%.

Consider `CN1C[C@H](c2cccc(F)c2)[C@@H](C(=O)Nc2ccccc2F)C1=O` [Compound 822], for which the pest or weed control at 125 g/ha is 0% in experiment [1]; 90% in experiment [2]; 90% in experiment [3]; 20% in experiment [4]; 70% in the experiment on Kochia (Kochia scoparia) [5]; 0% in experiment [6]. Further, the pest or weed control at 125 g/ha in experiment [7] turned out to be 0%; in [8], 20%; in experiment [9], 90%; in experiment [10], 90%; in experiment [11], 20%; in the experiment on Kochia (Kochia scoparia) [12], 0%. Also, the pest or weed control at 125 g/ha in experiment [14] and in [15] was 0% throughout. Moreover, the pest or weed control at 500 g/ha in experiment [1] was determined as 50%; in [2], 100%; in experiment [3] it was 100%; in [4], 40%; in the experiment on Kochia (Kochia scoparia) [5] it was 80%; in experiment [6], 30%. The plant injury at 125 g/ha was 0% in experiment [13] and 20% in the experiment with corn (Zea mays).

As to `Cc1c(F)cccc1NC(=O)[C@H]1C(=O)NC[C@@H]1c1cccc(C(F)(F)F)c1` [Compound 826], the pest or weed control at 125 g/ha in experiment [1] is 0%; in experiment [2], 90%; in experiment [3] it was 100%; in [4] it was 70%; in the experiment on Kochia (Kochia scoparia) [5], 70%; in [6], 20%. Besides, the pest or weed control at 125 g/ha in experiment [7] came to 30%; in [8], 50%; in [9], 100%; in [10], 90%; in [11], 60%; in the experiment with Kochia (Kochia scoparia) [12], 30%. The pest or weed control at 125 g/ha was 80% in experiment [14] and 50% in experiment [15]. Moreover, the pest or weed control at 500 g/ha worked out at 60% in experiment [1]; 100% in experiment [2]; 100% in experiment [3]; 80% in [4]; 90% with Kochia (Kochia scoparia) [5]; 80% in [6]. For the same compound, the plant injury at 125 g/ha in experiment [13] came out at 60%; in the experiment on corn (Zea mays) it was 80%.
